Reference: US10052330B2, “Substituted pyrido[3,4-b]pyrazines as Syk inhibitors” (HUTCHISON MEDIPHARMA LIMITED, priority 2011, dated 2018)

Biological target: Syk kinase (Homo sapiens, UniProt P43405)
Assay: Syk kinase enzymatic assay (Kit-Tyr 2 Peptide)
Assay type: biochemical
Settings: 8 concentrations, 1 μM down to 0.0003 μM; upper bound of each range is 'less than'; read-out: IC50: Enzymatic Activity (Syk kinase)

IC50	Structure (SMILES)
0.1 to 1 µM	FC1(CNc2nc(-c3ccc(N4CCOCC4)nc3)cc3nccnc23)CCCNC1 (single isomer, unassigned) [Compound 378]
0.001 to 0.1 µM	CN1CCN(c2ccc(-c3cc4nccnc4c(NCC4(F)CCCNC4)n3)cc2)CC1 (single isomer, unassigned) [Compound 380]
0.1 to 1 µM	c1cnc2c(N3CC4CNCC4C3)nc(-c3ccc(N4CCOCC4)cc3)cc2n1 (centres unmarked) [Compound 6]
0.1 to 1 µM	NC1CCN(c2nc(-c3ccc(N4CCOCC4)cc3)cc3nccnc23)CC1 [Compound 7]
0.1 to 1 µM	c1cnc2c(N3CCC4CNCC43)nc(-c3ccc(N4CCOCC4)cc3)cc2n1 (centres unmarked) [Compound 8]
0.1 to 1 µM	COc1cc(-c2cc3nccnc3c(NCC3CCCNC3)n2)cc(OC)c1OC (centres unmarked) [Compound 11]
0.1 to 1 µM	c1cc(-c2cc3nccnc3c(NCC3CCCNC3)n2)cc(N2CCOCC2)c1 (centres unmarked) [Compound 14]
0.1 to 1 µM	Fc1ccc(-c2cc3nccnc3c(NCC3CCCNC3)n2)cc1Cl (centres unmarked) [Compound 20]
0.1 to 1 µM	c1cnc2c(NC3CCCNC3)nc(-c3ccc(N4CCOCC4)cc3)cc2n1 (centres unmarked) [Compound 27]
0.1 to 1 µM	c1cnc2c(NCC3CCCNC3)nc(-c3ccoc3)cc2n1 (centres unmarked) [Compound 31]
0.001 to 0.1 µM	OCCn1cc(-c2cc3nccnc3c(NC[C@H]3CCCNC3)n2)cn1 [Compound 34]
0.1 to 1 µM	NS(=O)(=O)c1ccc(-c2cc3nccnc3c(NCC3CCCNC3)n2)cc1 (centres unmarked) [Compound 43]
0.001 to 0.1 µM	CNC(=O)COc1ccc(-c2cc3nccnc3c(NCC3CCCNC3)n2)cc1 (centres unmarked) [Compound 48]
0.1 to 1 µM	CNC(=O)COc1cccc(-c2cc3nccnc3c(NCC3CCCNC3)n2)c1 (centres unmarked) [Compound 49]
0.001 to 0.1 µM	CS(=O)(=O)Nc1ccc(-c2cc3nccnc3c(NCC3CCCNC3)n2)cc1 (centres unmarked) [Compound 53]
0.1 to 1 µM	Nc1ccc(-c2cc3nccnc3c(NCC3CCCNC3)n2)cn1 (centres unmarked) [Compound 57]
0.001 to 0.1 µM	c1cnc2c(NCC3CCCNC3)nc(-c3ccc(N4CCNCC4)cc3)cc2n1 (centres unmarked) [Compound 61]
0.001 to 0.1 µM	CN(C)Cc1ccc(-c2cc3nccnc3c(NCC3CCCNC3)n2)cc1 (centres unmarked) [Compound 64]
0.1 to 1 µM	O=C(c1ccc(-c2cc3nccnc3c(NCC3CCCNC3)n2)cc1)N1CCOCC1 (centres unmarked) [Compound 65]
0.1 to 1 µM	CCNC(=O)c1ccc(-c2cc3nccnc3c(NCC3CCCNC3)n2)cc1 (centres unmarked) [Compound 66]
0.1 to 1 µM	COCCn1cc(-c2cc3nccnc3c(NCC3CCCNC3)n2)cn1 (centres unmarked) [Compound 72]
0.001 to 0.1 µM	CN(C)CCOc1ccc(-c2cc3nccnc3c(NCC3CCCNC3)n2)cc1 (centres unmarked) [Compound 90]
0.1 to 1 µM	c1cnc2c(NC[C@H]3CNCCO3)nc(-c3ccc(N4CCCC4)nc3)cc2n1 [Compound 101]
0.1 to 1 µM	c1cnc2c(N3CC4CCNC4C3)nc(-c3ccc(N4CCOCC4)cc3)cc2n1 (centres unmarked) [Compound 145, 4-(4-(5-(hexahydropyrrolo[3,4-b]pyrrol-5(1H)-yl)pyrido[4,3-b]pyrazin-7-yl)phenyl)morpholine]
0.1 to 1 µM	CCN(CC1CCCNC1)c1nc(-c2ccc(N3CCOCC3)cc2)cc2nccnc12 (centres unmarked) [Compound 154]
0.1 to 1 µM	COc1ccc(-c2cc3nccnc3c(NCCCN)n2)cc1OC [Compound 191]
0.1 to 1 µM	CC(C)Nc1nc(-c2ccc(N3CCOCC3)cc2)cc2nccnc12 [Compound 195]

IC50	Structure (SMILES)
0.1 to 1 µM	COc1cc(-c2cc3nccnc3c(NCCCN)n2)ccc1OCCN1CCOCC1 [Compound 198]
0.1 to 1 µM	Cc1cc(-c2cc3nccnc3c(NCC3CNCC(F)(F)C3)n2)ccc1N1CCOCC1 (centres unmarked) [Compound 201]
0.1 to 1 µM	Fc1cc(-c2cc3nccnc3c(NCC3CNCC(F)(F)C3)n2)ccc1N1CCOCC1 (centres unmarked) [Compound 202]
0.1 to 1 µM	FC1(F)CNCC(CNc2nc(-c3ccc(N4CCOCC4)c(Cl)c3)cc3nccnc23)C1 (centres unmarked) [Compound 203]
0.1 to 1 µM	CNc1ccc(-c2cc3nccnc3c(NCC3CNCC(F)(F)C3)n2)cc1 (centres unmarked) [Compound 204]
0.1 to 1 µM	FC1(F)CNCC(CNc2nc(-c3ccc(N4CCOCC4)nc3)cc3nccnc23)C1 (centres unmarked) [Compound 206]
0.1 to 1 µM	CNc1ccc(-c2cc3nccnc3c(NCC3CNCC(F)(F)C3)n2)cc1F (centres unmarked) [Compound 207]
0.1 to 1 µM	CCn1cc(-c2cc3nccnc3c(NC[C@@H]3CNCCO3)n2)cn1 [Compound 209]
0.1 to 1 µM	Cn1cc(-c2cc3nccnc3c(NC[C@@H]3CNCCO3)n2)cn1 [Compound 210]
0.1 to 1 µM	CS(=O)(=O)c1ccc(-c2cc3nccnc3c(NC[C@@H]3CNCCO3)n2)cc1 [Compound 211]
0.1 to 1 µM	CN(C)Cc1ccc(-c2cc3nccnc3c(NC[C@@H]3CNCCO3)n2)cc1 [Compound 212]
0.1 to 1 µM	CN(C)C(=O)Cc1ccc(-c2cc3nccnc3c(NC[C@@H]3CNCCO3)n2)cc1 [Compound 224]
0.1 to 1 µM	CN(C)S(=O)(=O)c1ccc(-c2cc3nccnc3c(NCC3CNCCO3)n2)cc1 (centres unmarked) [Compound 227]
0.1 to 1 µM	O=C1COCCN1c1ccc(-c2cc3nccnc3c(NC[C@@H]3CNCCO3)n2)cc1 [Compound 242]
0.1 to 1 µM	c1cnc2c(NC[C@@H]3CNCCO3)nc(-c3ccc4c(c3)OCCO4)cc2n1 [Compound 244]
0.1 to 1 µM	Fc1ccc(-c2cc3nccnc3c(NC[C@@H]3CNCCO3)n2)cc1 [Compound 245]
0.1 to 1 µM	C[C@@H]1CN(c2ccc(-c3cc4nccnc4c(NC[C@@H]4CNCCO4)n3)cn2)C[C@H](C)O1 [Compound 246]
0.1 to 1 µM	c1cn(-c2ccc(-c3cc4nccnc4c(NC[C@@H]4CNCCO4)n3)cc2)cn1 [Compound 248]
0.1 to 1 µM	Cn1cc(-c2ccc(-c3cc4nccnc4c(NC[C@@H]4CNCCO4)n3)cc2)cn1 [Compound 249]
0.1 to 1 µM	FC1(CNc2nc(-c3ccc(N4CCOCC4)nc3)cc3nccnc23)CCCNC1 (centres unmarked) [Compound 252]
0.1 to 1 µM	CN1CC2CN(c3ccc(-c4cc5nccnc5c(NC[C@@H]5CNCCO5)n4)cn3)CC2C1 (some centres unmarked) [Compound 256]
0.1 to 1 µM	OC1CCN(c2ccc(-c3cc4nccnc4c(NC[C@@H]4CNCCO4)n3)cn2)C1 (some centres unmarked) [Compound 257]
0.1 to 1 µM	c1cnc2c(NC[C@@H]3CNCCO3)nc(-c3ccc(OCC4CCOCC4)nc3)cc2n1 [Compound 258]
0.1 to 1 µM	CN1CCC(n2cc(-c3cc4nccnc4c(NC[C@@H]4CNCCO4)n3)cn2)CC1 [Compound 262]
0.1 to 1 µM	c1cnc2c(NC[C@@H]3CNCCO3)nc(-c3ccc(OCCN4CCOCC4)nc3)cc2n1 [Compound 263]
0.1 to 1 µM	CC(C)(O)COc1ccc(-c2cc3nccnc3c(NC[C@@H]3CNCCO3)n2)cc1 [Compound 268]
0.1 to 1 µM	c1cnc2c(NC[C@@H]3CNCCO3)nc(-c3ccc(OC4CCOCC4)nc3)cc2n1 [Compound 271]

IC50	Structure (SMILES)
0.1 to 1 µM	CC(Nc1nc(-c2ccc(N3CCOCC3)nc2)cc2nccnc12)C1CNCCO1 (centres unmarked) [Compound 277]
0.1 to 1 µM	O=S(=O)(c1ccc(-c2cc3nccnc3c(NC[C@@H]3CNCCO3)n2)cc1)N1CCOCC1 [Compound 283]
0.1 to 1 µM	CNS(=O)(=O)c1ccc(-c2cc3nccnc3c(NC[C@@H]3CNCCO3)n2)cc1 [Compound 284]
0.1 to 1 µM	COCCn1cc(-c2cc3nccnc3c(NCC3(F)CCCNC3)n2)cn1 (centres unmarked) [Compound 288]
0.1 to 1 µM	COc1ccc(-c2cc3nccnc3c(NCC3CNCCC3(F)F)n2)cn1 (centres unmarked) [Compound 299]
0.1 to 1 µM	O=C(C(F)F)N1CCC(F)(F)C(CNc2nc(-c3cnn(C4CCOCC4)c3)cc3nccnc23)C1 (centres unmarked) [Compound 325]
0.1 to 1 µM	CC(=O)N1CCO[C@H](CNc2nc(-c3ccc(N4CCOCC4)cc3)cc3nccnc23)C1 [Compound 326]
0.1 to 1 µM	CCC(=O)N1CCO[C@H](CNc2nc(-c3ccc(N4CCOCC4)cc3)cc3nccnc23)C1 [Compound 327]
0.1 to 1 µM	CC(C)C(=O)N1CCO[C@H](CNc2nc(-c3ccc(N4CCOCC4)cc3)cc3nccnc23)C1 [Compound 328]
0.1 to 1 µM	O=C(CO)N1CCO[C@H](CNc2nc(-c3ccc(N4CCOCC4)cc3)cc3nccnc23)C1 [Compound 337]
0.1 to 1 µM	CNC(=O)N1CCO[C@H](CNc2nc(-c3ccc(N4CCOCC4)cc3)cc3nccnc23)C1 [Compound 339]
0.1 to 1 µM	CC(C)(F)C(=O)N1CCO[C@H](CNc2nc(-c3ccc(N4CCOCC4)cc3)cc3nccnc23)C1 [Compound 341]
0.1 to 1 µM	CC(F)(F)C(=O)N1CCO[C@H](CNc2nc(-c3ccc(N4CCOCC4)cc3)cc3nccnc23)C1 [Compound 342]
0.1 to 1 µM	O=C(CC(F)(F)F)N1CCO[C@H](CNc2nc(-c3ccc(N4CCOCC4)cc3)cc3nccnc23)C1 [Compound 343]
0.1 to 1 µM	O=S(=O)(C1CC1)N1CCO[C@H](CNc2nc(-c3ccc(N4CCOCC4)cc3)cc3nccnc23)C1 [Compound 344]
0.1 to 1 µM	NC(=O)N1CCO[C@H](CNc2nc(-c3ccc(N4CCOCC4)c(F)c3)cc3nccnc23)C1 [Compound 348]
0.1 to 1 µM	NC(=O)N1CCC(CNc2nc(-c3ccc(N4CCOCC4)cc3)cc3nccnc23)CC1 [Compound 350]
0.1 to 1 µM	NC(=O)N1CCCCC1CNc1nc(-c2ccc(N3CCOCC3)cc2)cc2nccnc12 (centres unmarked) [Compound 354]
0.1 to 1 µM	NC(=O)N1CCC(F)(F)C(CNc2nc(-c3cnn(C4CCOCC4)c3)cc3nccnc23)C1 (centres unmarked) [Compound 355]
0.1 to 1 µM	NC(=O)N1CCC(F)(F)C(CNc2nc(-c3ccc(N4CCOCC4)cc3)cc3nccnc23)C1 (centres unmarked) [Compound 356]
0.1 to 1 µM	CNc1nc(-c2ccc(N3CCOCC3)cc2)cc2nccnc12 [Compound 357]
0.1 to 1 µM	CC(CO)Nc1nc(-c2ccc(N3CCOCC3)cc2)cc2nccnc12 (centres unmarked) [Compound 358]
0.1 to 1 µM	O=C1CN(c2nc(-c3ccc(N4CCOCC4)cc3)cc3nccnc23)CCN1 [Compound 360]
0.1 to 1 µM	O=C(O)c1ccccc1Nc1nc(-c2ccc(N3CCOCC3)cc2)cc2nccnc12 [Compound 361]
0.1 to 1 µM	NC(=O)[C@H]1CC[C@@H](Nc2nc(-c3ccc(N4CCOCC4)cc3)cc3nccnc23)CC1 [Compound 363]

Structure (SMILES)	IC50
CN(C)c1ccc(-c2cc3nccnc3c(NCC3CCCNC3)n2)cn1 (centres unmarked) [Compound 59]	0.001 to 0.1 µM
